Measured values reported in PMC5374206, “Anti-bacterial and Anti-biofilm Evaluation of Thiazolopyrimidinone Derivatives Targeting the Histidine Kinase YycG Protein of Staphylococcus epidermidis” (Frontiers in Microbiology, 2017).
≈ marks a conversion by molar mass, not a printed value. Like-named read-outs stand apart in the source and are kept apart here.

Columns and labels:
E. coli ATCC 25922 = assay: MIC tube-dilution assay; assay type: cell-based, Escherichia coli; conditions: E. coli ATCC29522 (head), highest concentration used 200 μM
Protocol: (§1) The MIC assays of the derivatives of compound 5 against S. epidermidis, S. aureus, MRSA and E. coli were performed by using the methods described previously by Wiegand et al. ([2008]). In brief, two-fold serial dilutions of the derivatives were prepared in tubes containing 4 mL MHB medium, yielding final concentrations from 200 to 0.78 μM. Bacterial cultures were grown overnight and adjusted so that the bacterial suspension turbidity was equivalent to a 0.5 McFarland standard (~1 × 10^8 CFU/mL) and further diluted to 1:200 into MHB medium. The contents in the tubes were mixed thoroughly and incubated at 37°C with shaking at 220 rpm for 16–20 h. The MIC endpoint was defined as the lowest concentration at which there was no visible growth in the tubes. The MBC values were assessed by plating 100 μL samples from each negative (no visible bacterial growth) culture tube from the MIC assays onto blank MHB agar plates. After incubation at 37°C for 24 h, the bacterial colonies on the plates were counted. The MBC was the concentration at which a 99.9% reduction of the original inoculum was observed (Pridmore et al., [2011]). In this assay, all the experiments were performed three times.

Cytotoxicity MTT assay = assay type: cell-based; conditions: African green monkey, Vero cells, highest concentration tested 200 μM
Protocol: A Cell Proliferation Kit I (MTT; Roche, Indianapolis, USA) was used to detect the cytotoxicity of the derivatives against Vero cells. Vero cells were added to 96-well microtiter plates at a concentration of 5 × 10^4 cells/well in 100 μL of culture medium. After 24 h, culture medium was replaced by 100 μL serial dilutions of the derivatives (0.78–100 μM) and the cells were incubated for 4 h in an atmosphere of 5% CO2, then 10 μL of the MTT stock solution was added to each well and the plate returned to the 37°C incubator for 4 h. Subsequent to the incubation, the purple formazan salts were dissolved in DMSO, and the absorbance of each well was measured at wavelengths of 595 nm (test) and 655 nm (reference). Cells treated with the solvent (0.1% DMSO) were used as a blank control. The concentration of the derivatives that produced a 50% cytotoxicity effect on Vero cells (CC50) was calculated using Origin v8.0 software (Origin Lab, Northampton, USA).

[1] = test system: S. epidermidis ATCC 35984 mature biofilms; assay: Cell viability in mature (24 h) biofilms by CLSM with Live/Dead staining; assay type: cell-based, Staphylococcus epidermidis; conditions: 4 × MIC, 16 h, 24 h mature biofilm; for PI fluorescence quantity (dead cells) / SYTO9 fluorescence quantity (viable cells): Image J
Protocol: The effect of the derivatives on cell viability in mature biofilms (24 h old) was determined using the Live/Dead Bacterial Viability method (Live/Dead BacLight, Molecular Probes, USA). […] The mature biofilms were stained with SYTO 9 and propidium iodide at room temperature for 15 min, following gentle washing of the dishes with normal saline, and were observed under a Leica TCS SP5 CLSM with a 63 × 1.4-NA oil-immersion objective. Further, image analysis was performed using IMARIS 7.0.0 software (Bitplane). The fluorescence quantities of biofilm were determined using Image J software. This assay was performed in triplicate and similar results were obtained.

[2] = test system: methicillin-resistant S. aureus (MRSA) clinical isolates; assay: MIC and MBC against clinical MRSA isolates; assay type: cell-based; conditions: Staphylococcus aureus
Protocol: S. epidermidis ATCC 12228 (biofilm negative), S. epidermidis ATCC 35984 (biofilm positive), S. aureus ATCC 49230 and Escherichia coli ATCC 25922 were used in this study. Six clinical methicillin-resistant S. aureus (MRSA) isolates were collected from the Department of Clinical Laboratory, Shanghai General Hospital, School of Medicine, Shanghai Jiaotong University, China. Staphylococcal strains were grown in tryptic soy broth (TSB; Oxoid Ltd., Basingstoke, England), and E. coli strains were grown in Luria-Bertani broth medium. Mueller-Hinton broth (MHB; Oxoid Ltd., Basingstoke, England) was used for antimicrobial susceptibility testing. Vancomycin and ampicillin were obtained from the Sigma Chemical Co. (St Louis, MO, USA).
as §1

[3] = test system: S. epidermidis ATCC 35984; assay: Time-kill assay against fast-growing S. epidermidis; assay type: cell-based, Staphylococcus epidermidis; conditions: 4 × MIC; within/after 1 h; inoculum ~1 × 10^7 CFU/mL; MHB
Protocol: Suspensions of S. epidermidis (1 × 10^7 CFU/mL) were prepared and separately treated with the derivatives of compound 5 or vancomycin at concentrations of 4 × MIC in fresh MHB. Time-kill experiments were performed at 37°C with shaking at 220 rpm under aerobic conditions. Aliquots (1 mL) were removed from the culture medium at different time points (0, 1, 3, 5, 8, and 24 h), serially diluted and 100 μL of each of the dilutions plated out onto tryptic soy agar. After incubating at 37°C for 24 h, emergent bacterial colonies were counted, and the activity of the derivatives against fast-growing S. epidermidis cells was determined by plotting log10 colony counts (CFU/mL) against time. Bactericidal activity was defined as a 3-log10 decrease in CFU/mL. This assay was performed in triplicate and similar results were obtained.

ArlS' protein = biological target: T1, ArlS' protein (Staphylococcus epidermidis, UniProt Q5HPC4); assay: Inhibition of ArlS' autophosphorylation (Kinase-Glo Luminescent Kinase Assay); assay type: biochemical, S. epidermidis; conditions: for Inhibition of ArlS’ phosphorylation / Luminescence: 200 μM derivative, 2 μg purified protein, 4 μM ATP; for inhibitory effect on the autophosphorylation of ArlS': highest concentration 200 μM, result in words
T1 construct: made in house
T1 sequence (Q5HPC4 240-456): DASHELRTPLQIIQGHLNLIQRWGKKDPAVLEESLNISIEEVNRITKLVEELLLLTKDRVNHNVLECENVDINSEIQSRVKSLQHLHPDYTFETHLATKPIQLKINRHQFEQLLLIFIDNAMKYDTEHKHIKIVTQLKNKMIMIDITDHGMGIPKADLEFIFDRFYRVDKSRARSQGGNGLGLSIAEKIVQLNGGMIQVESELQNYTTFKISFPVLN

[4] = Aqueous solubility observation; assay type: physicochemical; conditions: 200 μM; precipitated after incubation at 37°C for 12 h; result in words
[5] = Escherichia coli, ATCC 25922 / ATCC 29522
[6] = MRSA strain 66, ST239, read-out: MIC
[7] = MRSA strain 69, ST217, read-out: MIC
[8] = MRSA strain 141, ST5, read-out: MIC
[9] = MRSA strain 226, ST59, read-out: MIC
[10] = MRSA strain 258, ST239, read-out: MIC
[11] = MRSA strain 260, ST764, read-out: MIC
[12] = range over six isolates, read-out: MICs against six MRSA clinical isolates

SMILES | MIC (E. coli ATCC 25922) | MIC (E. coli ATCC 25922; [5]) | CC50 at 4 h (Cytotoxicity MTT assay) | PI/Total (reduction of the proportion of viable cells in mature biofilms) [1] | PI fluorescence quantity (dead cells) [1] | SYTO9 fluorescence quantity (viable cells) [1] | MBC ([2]; MRSA strain 66, ST239) | MIC [2, 6] | MBC ([2]; MRSA strain 69, ST217) | MIC [2, 7] | MBC ([2]; MRSA strain 141, ST5) | MIC [2, 8] | MBC ([2]; MRSA strain 226, ST59) | MIC [2, 9] | MBC ([2]; MRSA strain 258, ST239) | MIC [2, 10] | MBC ([2]; MRSA strain 260, ST764) | MIC [2, 11] | MIC [2, 12] | reduction in CFU/mL [3] | other results
CCOC(=O)C1=C(c2ccccc2)N=c2sc(=Cc3ccc(-c4cccc(C(=O)O)c4)o3)c(=O)n2C1c1ccc(F)cc1 (stereo not drawn) [H5-32, 2-[5-(3-carboxy-phenyl)-furan-2-ylmethylene]-5-(4-fluoro-phenyl)-3-oxo-7-phenyl-2,3-dihydro-5H-thiazolo[3,2-a]pyrimidine-6-carboxylic acid ethyl ester] | >200 µM | > 200 µM | > 200 µM | 66.50% | 40.338 ± 5.03 | 20.321 ± 4.66 | 100 µM (≈ 59.5 µg/mL) | 3.13 µM (≈ 1.86 µg/mL) | 50 µM (≈ 29.7 µg/mL) | 3.13 µM (≈ 1.86 µg/mL) | 100 µM (≈ 59.5 µg/mL) | 6.25 µM (≈ 3.72 µg/mL) | 50 µM (≈ 29.7 µg/mL) | 6.25 µM (≈ 3.72 µg/mL) | 200 µM (≈ 119 µg/mL) | 3.13 µM (≈ 1.86 µg/mL) | 100 µM (≈ 59.5 µg/mL) | 6.25 µM (≈ 3.72 µg/mL) | 3.13 to 6.25 µM (≈ 1.86 to 3.72 µg/mL) | 3 log | Inhibition of ArlS’ phosphorylation (ArlS' protein): -5.9%; inhibitory effect on the autophosphorylation of ArlS' (ArlS' protein): None of them showed an inhibitory effect
O=C(O)c1cccc(-c2ccc(C=c3sc4n(c3=O)C(c3ccc(F)cc3)C=C(c3ccccc3)N=4)o2)c1 (stereo not drawn) [H5-33, 3-{5-[5-(4-fluoro-phenyl)-3-oxo-7-phenyl-5H-thiazolo [3,2-a]pyrimidin-2-ylidenemethyl]-furan-2-yl}-benzoic acid] | >200 µM | > 200 µM | > 200 µM | 88.4% | 73.684 ± 5.56 | 9.669 ± 3.64 | 200 µM (≈ 105 µg/mL) | 6.25 µM (≈ 3.27 µg/mL) | 50 µM (≈ 26.1 µg/mL) | 6.25 µM (≈ 3.27 µg/mL) | 200 µM (≈ 105 µg/mL) | 6.25 µM (≈ 3.27 µg/mL) | 200 µM (≈ 105 µg/mL) | 6.25 µM (≈ 3.27 µg/mL) | 200 µM (≈ 105 µg/mL) | 6.25 µM (≈ 3.27 µg/mL) | 200 µM (≈ 105 µg/mL) | 6.25 µM (≈ 3.27 µg/mL) | 3.13 to 6.25 µM (≈ 1.64 to 3.27 µg/mL) | 3 log | Inhibition of ArlS’ phosphorylation (ArlS' protein): -5.1%; Luminescence (ArlS' protein): 17786 + 382 RLU; inhibitory effect on the autophosphorylation of ArlS' (ArlS' protein): None of them showed an inhibitory effect
CCOC(=O)C1=C(c2ccccc2)N=c2sc(=Cc3ccc(-c4ccc(C(=O)O)cc4)o3)c(=O)n2C1c1ccc(Cl)cc1 (stereo not drawn) [H5-34, 2-[5-(4-carboxy-phenyl)-furan-2-ylmethylene]-5-(4-chloro-phenyl)-3-oxo-7-phenyl-2,3-dihydro-5H-thiazolo[3,2-a]pyrimidine-6-carboxylic acid ethyl ester] | >200 µM | > 200 µM | > 200 µM | 38.80% | 39.578 ± 4.74 | 62.165 ± 6.71 | 200 µM (≈ 122 µg/mL) | 3.13 µM (≈ 1.91 µg/mL) | 50 µM (≈ 30.6 µg/mL) | 6.25 µM (≈ 3.82 µg/mL) | 200 µM (≈ 122 µg/mL) | 6.25 µM (≈ 3.82 µg/mL) | 100 µM (≈ 61.1 µg/mL) | 6.25 µM (≈ 3.82 µg/mL) | 200 µM (≈ 122 µg/mL) | 6.25 µM (≈ 3.82 µg/mL) | 200 µM (≈ 122 µg/mL) | 6.25 µM (≈ 3.82 µg/mL) | 3.13 to 6.25 µM (≈ 1.91 to 3.82 µg/mL) | 3 log | aqueous solubility [4]: limited aqueous solubility; Inhibition of ArlS’ phosphorylation (ArlS' protein): -5.6%; Luminescence (ArlS' protein): 17747 + 622 RLU; inhibitory effect on the autophosphorylation of ArlS' (ArlS' protein): None of them showed an inhibitory effect
CCOC(=O)C1=C(c2ccccc2)N=c2sc(=Cc3ccc(-c4ccc(C(=O)O)cc4)o3)c(=O)n2C1c1ccc(F)cc1 (stereo not drawn) [H5-35, 2-[5-(4-carboxy-phenyl)-furan-2-ylmethylene]-5-(4-fluoro-phenyl)-3-oxo-7-phenyl-2,3-dihydro-5H-thiazolo[3,2-a]pyrimidine-6-carboxylic acid ethyl ester] | >200 µM | > 200 µM | > 200 µM | 71.7% | 41.253 ± 5.31 | 16.283 ± 4.75 | 200 µM (≈ 119 µg/mL) | 3.13 µM (≈ 1.86 µg/mL) | 50 µM (≈ 29.7 µg/mL) | 6.25 µM (≈ 3.72 µg/mL) | 200 µM (≈ 119 µg/mL) | 6.25 µM (≈ 3.72 µg/mL) | 100 µM (≈ 59.5 µg/mL) | 6.25 µM (≈ 3.72 µg/mL) | 200 µM (≈ 119 µg/mL) | 6.25 µM (≈ 3.72 µg/mL) | 200 µM (≈ 119 µg/mL) | 6.25 µM (≈ 3.72 µg/mL) | 3.13 to 6.25 µM (≈ 1.86 to 3.72 µg/mL) | 3 log | aqueous solubility [4]: limited aqueous solubility; Inhibition of ArlS’ phosphorylation (ArlS' protein): -1.5%; Luminescence (ArlS' protein): 18075 + 285 RLU; inhibitory effect on the autophosphorylation of ArlS' (ArlS' protein): None of them showed an inhibitory effect
